We go through eight compounds from patent publication US12497365B2, “4-pyridinyl formamide compound or derivative thereof, preparation method therefor, herbicidal composition and use thereof” (Qingdao Kingagroot Chemical Compound Co., Ltd., priority 2019, dated 2025).

Assay in all cases: Weeding effect in post-emergence stage
What all share (assay type): in vivo
Common to all, as to details: active ingredient 2000 g/ha, 3 weeks after application, fresh weight control rate

Assay [1] has as its system Abutilon theophrasti. In short, it runs like this: (§1)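 Greenhouse-grown weeds at the 2-3 leaf stage, about 2 weeks after sowing, were sprayed with compound at 2000-125 g/ha. The spray solution was made from acetone with Tween 80 and 1.5 L/ha methyl oleate concentrate as synergist. Fresh-weight growth control was scored 3 weeks after treatment.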
In assay [2] the test system is Amaranthus retroflexus L. Put shortly:
as §1

Assay [3] relates to Chenopodium album. Put shortly: as §1
For assay [4], the system named is Descurainia sophia. In short, it runs like this: as §1

Turning to `COc1nccc(C(=O)Nc2nnnn2C)c1Cl` [Compound 1-2061], in assay [1], the “Weeding effect, activity level (growth control rate), Abutilon theophrasti” value (from here on “Weeding effect … Abutilon theophrasti”) is given as 5 (Level 5: growth control rate is above 85%). Besides, the “Weeding effect, activity level (growth control rate), Amaranthus retroflexus L.” value (from here on “Weeding effect … Amaranthus retroflexus L.”) in assay [2] is on record as 5 (Level 5: growth control rate is above 85%). In addition, the “Weeding effect, activity level (growth control rate), Chenopodium album” value (shortened to “Weeding effect … Chenopodium album”) in assay [3] was 5 (Level 5: growth control rate is above 85%). The “Weeding effect, activity level (growth control rate), Descurainia sophia” value (“Weeding effect … Descurainia sophia” below) in assay [4] is given as 5 (Level 5: growth control rate is above 85%).
Consider `Cn1nnnc1NC(=O)c1ccnc(OCC(F)(F)F)c1Cl` [Compound 1-2062], for which, in assay [1], the “Weeding effect … Abutilon theophrasti” value is given as 5 (Level 5: growth control rate is above 85%). Besides, the “Weeding effect … Amaranthus retroflexus L.” value in assay [2] was 5 (Level 5: growth control rate is above 85%). Moreover, the “Weeding effect … Chenopodium album” value in assay [3] is given as 5 (Level 5: growth control rate is above 85%). Also, the “Weeding effect … Descurainia sophia” value in assay [4] is listed as 5 (Level 5: growth control rate is above 85%).
In the case of `Cn1nnnc1NC(=O)c1ccnc(Oc2ccccc2)c1Cl` [Compound 1-2063], the “Weeding effect … Abutilon theophrasti” value in assay [1] is reported as 5 (Level 5: growth control rate is above 85%). The “Weeding effect … Amaranthus retroflexus L.” value in assay [2] is given as 5 (Level 5: growth control rate is above 85%). The “Weeding effect … Chenopodium album” value in assay [3] was 5 (Level 5: growth control rate is above 85%). In addition, the “Weeding effect … Descurainia sophia” value in assay [4] is on record as 5 (Level 5: growth control rate is above 85%).
As for `Cn1nnnc1NC(=O)c1ccnc(OCc2ccccc2)c1Cl` [Compound 1-2064], the “Weeding effect … Abutilon theophrasti” value in assay [1] is 5 (Level 5: growth control rate is above 85%). In addition, the “Weeding effect … Amaranthus retroflexus L.” value in assay [2] is on record as 5 (Level 5: growth control rate is above 85%). Moreover, the “Weeding effect … Chenopodium album” value in assay [3] is listed as 5 (Level 5: growth control rate is above 85%). Moreover, in assay [4], the “Weeding effect … Descurainia sophia” value was 5 (Level 5: growth control rate is above 85%).
For the compound `CSc1nccc(C(=O)Nc2nnnn2C)c1Cl` [Compound 1-2065], in assay [1], the “Weeding effect … Abutilon theophrasti” value is 5 (Level 5: growth control rate is above 85%). Also, the “Weeding effect … Amaranthus retroflexus L.” value in assay [2] is 5 (Level 5: growth control rate is above 85%). In addition, the “Weeding effect … Chenopodium album” value in assay [3] is listed as 5 (Level 5: growth control rate is above 85%). Also, in assay [4], the “Weeding effect … Descurainia sophia” value is on record as 5 (Level 5: growth control rate is above 85%).
On to `COc1ccc(CSc2nccc(C(=O)Nc3nnnn3C)c2Cl)cc1` [Compound 1-2069], for which the “Weeding effect … Abutilon theophrasti” value in assay [1] is listed as 5 (Level 5: growth control rate is above 85%). For the same compound, the “Weeding effect … Amaranthus retroflexus L.” value in assay [2] is listed as 5 (Level 5: growth control rate is above 85%). Also, in assay [3], the “Weeding effect … Chenopodium album” value was 5 (Level 5: growth control rate is above 85%). Also, the “Weeding effect … Descurainia sophia” value in assay [4] is listed as 5 (Level 5: growth control rate is above 85%).
Turning to `CCC[S+]([O-])c1nccc(C(=O)Nc2nnnn2C)c1Cl` (centres unmarked) [Compound 1-2070], the “Weeding effect … Abutilon theophrasti” value in assay [1] was 5 (Level 5: growth control rate is above 85%). Also, in assay [2], the “Weeding effect … Amaranthus retroflexus L.” value is 5 (Level 5: growth control rate is above 85%). In addition, in assay [3], the “Weeding effect … Chenopodium album” value is 5 (Level 5: growth control rate is above 85%). In addition, the “Weeding effect … Descurainia sophia” value in assay [4] is listed as 5 (Level 5: growth control rate is above 85%).
On to `CCCS(=O)(=O)c1nccc(C(=O)Nc2nnnn2C)c1Cl` [Compound 1-2071], for which, in assay [1], the “Weeding effect … Abutilon theophrasti” value is 5 (Level 5: growth control rate is above 85%). In assay [2], the “Weeding effect … Amaranthus retroflexus L.” value is listed as 5 (Level 5: growth control rate is above 85%). Besides, in assay [3], the “Weeding effect … Chenopodium album” value is on record as 5 (Level 5: growth control rate is above 85%). For the same compound, in assay [4], the “Weeding effect … Descurainia sophia” value is on record as 5 (Level 5: growth control rate is above 85%).
